{
  "source": "patent US12637461B2",
  "about": "“Compounds for the activation of AMPK” (PFIZER INC., priority 2022, dated 2026)",
  "molecular_target": "T1, human AMPK α2β2γ3 (Homo sapiens, UniProt O43741+P54646+Q9UGI9)",
  "T1 construct": "expressed in transfected cells; host or cells: HEK293AD cells, MaxCyte bulk electroporation",
  "T1 sequence (P54646 whole entry)": "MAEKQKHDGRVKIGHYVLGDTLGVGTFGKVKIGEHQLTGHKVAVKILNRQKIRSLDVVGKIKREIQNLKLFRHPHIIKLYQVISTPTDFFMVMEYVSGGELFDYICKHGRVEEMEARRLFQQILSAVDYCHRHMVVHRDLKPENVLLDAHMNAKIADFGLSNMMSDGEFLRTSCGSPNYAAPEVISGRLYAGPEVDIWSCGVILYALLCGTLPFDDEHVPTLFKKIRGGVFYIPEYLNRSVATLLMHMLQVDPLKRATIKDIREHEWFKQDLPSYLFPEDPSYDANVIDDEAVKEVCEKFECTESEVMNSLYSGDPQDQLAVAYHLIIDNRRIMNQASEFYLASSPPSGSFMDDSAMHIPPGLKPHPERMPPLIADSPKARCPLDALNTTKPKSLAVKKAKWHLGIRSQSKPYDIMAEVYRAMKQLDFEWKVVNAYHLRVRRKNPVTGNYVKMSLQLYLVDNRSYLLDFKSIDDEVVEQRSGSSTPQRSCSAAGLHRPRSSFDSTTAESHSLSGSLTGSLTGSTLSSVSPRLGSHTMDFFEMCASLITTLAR",
  "T1 sequence (O43741 whole entry)": "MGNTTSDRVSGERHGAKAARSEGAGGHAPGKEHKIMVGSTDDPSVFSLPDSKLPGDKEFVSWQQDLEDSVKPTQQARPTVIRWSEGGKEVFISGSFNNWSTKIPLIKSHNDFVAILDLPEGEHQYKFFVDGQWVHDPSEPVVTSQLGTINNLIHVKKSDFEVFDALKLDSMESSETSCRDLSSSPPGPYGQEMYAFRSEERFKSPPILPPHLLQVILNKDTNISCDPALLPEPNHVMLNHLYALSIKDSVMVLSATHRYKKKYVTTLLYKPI",
  "T1 sequence (Q9UGI9 whole entry)": "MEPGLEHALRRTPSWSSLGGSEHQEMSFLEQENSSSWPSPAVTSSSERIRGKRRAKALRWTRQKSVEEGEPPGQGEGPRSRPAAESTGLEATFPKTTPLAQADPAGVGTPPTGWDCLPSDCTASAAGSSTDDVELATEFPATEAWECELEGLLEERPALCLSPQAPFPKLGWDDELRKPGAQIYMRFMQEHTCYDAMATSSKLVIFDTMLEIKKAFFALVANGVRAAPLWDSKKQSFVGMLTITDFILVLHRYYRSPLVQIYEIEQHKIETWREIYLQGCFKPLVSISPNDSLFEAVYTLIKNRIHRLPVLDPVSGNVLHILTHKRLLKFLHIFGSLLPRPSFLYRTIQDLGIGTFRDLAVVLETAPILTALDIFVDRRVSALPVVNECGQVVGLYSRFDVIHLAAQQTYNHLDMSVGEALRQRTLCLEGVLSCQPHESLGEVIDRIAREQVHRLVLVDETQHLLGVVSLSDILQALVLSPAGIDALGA",
  "test": "Primary cellular assay: γ3 associated phospho-Thr172 AMPK detection (custom pAMPK Surefire AlphaLISA) in α2β2γ3 bulk transiently transfected HEK293 cells",
  "type": "cell-based",
  "settings": "activation of human AMPK α2β2γ3 (γ3 pThr172 AMPK signal) in transiently transfected HEK293 cells, 20 minutes compound incubation; for Emax: 20 min, geometric mean of the asymptotic max, read-out: Assay GMean Asy. Max (%); for EC50: geometric mean EC50, read-out: Assay GMean EC50",
  "method_in_brief": "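Transiently co-transfected (α2/β2/γ3 plasmids, electroporation) HEK293AD cells, plated 2 days in low-glucose DMEM+10% FBS, treated 20 min with compounds (11-point half-log dilutions). Lysates read by modified AlphaLISA capturing γ3 with pThr172 antibody detection. % effect relative to 30 μM HPE and DMSO; EC50 and Emax from curve fit.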",
  "data": [
    {"smiles": "C[C@]1(c2cccc(Cl)c2F)CN(c2ccccc2F)C(=O)c2cnc(NC3CN(C(=O)[C@@H]4C[C@@H]4F)C3)c(F)c21", "note": "[compound 56, (4R)-4-(3-chloro-2-fluorophenyl)-5-fluoro-6-({1-[(1S,2S)-2-fluorocyclopropane-1-carbonyl]azetidin-3-yl}amino)-2-(2-fluorophenyl)-4-methyl-3,4-dihydro-2,7-naphthyridin-1(2H)-one]", "values": [
      {"measurement": "Emax", "result": 92.9, "unit": "%"},
      {"measurement": "EC50", "result": 256, "unit": "nM"}
    ]},
    {"smiles": "CC(C)(O)C(=O)N1CC(Nc2ncc3c(c2F)[C@@](C)(c2cccc(Cl)c2F)CN(c2ccc(CO)cn2)C3=O)C1", "note": "[compound 57, (4R)-4-(3-chloro-2-fluorophenyl)-5-fluoro-6-{[1-(2-hydroxy-2-methylpropanoyl)azetidin-3-yl]amino}-2-[5-(hydroxymethyl)pyridin-2-yl]-4-methyl-3,4-dihydro-2,7-naphthyridin-1(2H)-one]", "values": [
      {"measurement": "Emax", "result": 84.9, "unit": "%"},
      {"measurement": "EC50", "result": 75, "unit": "nM"}
    ]},
    {"smiles": "Cn1cncc1C(=O)N1CC(Nc2ncc3c(c2F)[C@@](C)(c2cccc(Cl)c2F)CN(c2ccc(CO)cn2)C3=O)C1", "note": "[compound 58, (4R)-4-(3-chloro-2-fluorophenyl)-5-fluoro-2-[5-(hydroxymethyl)pyridin-2-yl]-4-methyl-6-{[1-(1-methyl-1H-imidazole-5-carbonyl)azetidin-3-yl]amino}-3,4-dihydro-2,7-naphthyridin-1(2H)-one]", "values": [
      {"measurement": "Emax", "result": 74.6, "unit": "%"},
      {"measurement": "EC50", "result": 113, "unit": "nM"}
    ]},
    {"smiles": "C[C@]1(c2cccc(Cl)c2F)CN(c2ccc(CO)cn2)C(=O)c2cnc(NC3CN(C(=O)c4ncccn4)C3)c(F)c21", "note": "[compound 59, (4R)-4-(3-chloro-2-fluorophenyl)-5-fluoro-2-[5-(hydroxymethyl)pyridin-2-yl]-4-methyl-6-{[1-(pyrimidine-2-carbonyl)azetidin-3-yl]amino}-3,4-dihydro-2,7-naphthyridin-1(2H)-one]", "values": [
      {"measurement": "Emax", "result": 62.4, "unit": "%"},
      {"measurement": "EC50", "result": 157, "unit": "nM"}
    ]},
    {"smiles": "Cn1cc(C(=O)N2CC(Nc3ncc4c(c3F)[C@@](C)(c3cccc(Cl)c3F)CN(c3ccc(CO)cn3)C4=O)C2)nn1", "note": "[compound 60, (4R)-4-(3-chloro-2-fluorophenyl)-5-fluoro-2-[5-(hydroxymethyl)pyridin-2-yl]-4-methyl-6-{[1-(1-methyl-1H-1,2,3-triazole-4-carbonyl)azetidin-3-yl]amino}-3,4-dihydro-2,7-naphthyridin-1(2H)-one]", "values": [
      {"measurement": "Emax", "result": 48.6, "unit": "%"},
      {"measurement": "EC50", "result": 53.5, "unit": "nM"}
    ]},
    {"smiles": "Cn1cc(F)c(N2C[C@](C)(c3cccc(Cl)c3F)c3c(cnc(NC4CN(C(=O)C(C)(C)O)C4)c3F)C2=O)n1", "note": "[compound 61, (4R)-4-(3-chloro-2-fluorophenyl)-5-fluoro-2-(4-fluoro-1-methyl-1H-pyrazol-3-yl)-6-{[1-(2-hydroxy-2-methylpropanoyl)azetidin-3-yl]amino}-4-methyl-3,4-dihydro-2,7-naphthyridin-1(2H)-one]", "values": [
      {"measurement": "Emax", "result": 100, "unit": "%"},
      {"measurement": "EC50", "result": 92.2, "unit": "nM"}
    ]},
    {"smiles": "Cn1cc(F)c(N2C[C@](C)(c3cccc(Cl)c3F)c3c(cnc(NC4CN(C(=O)C5(O)CC5)C4)c3F)C2=O)n1", "note": "[compound 62, (4R)-4-(3-chloro-2-fluorophenyl)-5-fluoro-2-(4-fluoro-1-methyl-1H-pyrazol-3-yl)-6-{[1-(1-hydroxycyclopropane-1-carbonyl)azetidin-3-yl]amino}-4-methyl-3,4-dihydro-2,7-naphthyridin-1(2H)-one]", "values": [
      {"measurement": "Emax", "result": 138, "unit": "%"},
      {"measurement": "EC50", "result": 98.1, "unit": "nM"}
    ]},
    {"smiles": "Cn1cc(F)c(N2C[C@](C)(c3cccc(Cl)c3F)c3c(cnc(NC4CN(C(=O)CC(F)(F)F)C4)c3F)C2=O)n1", "note": "[compound 63, (4R)-4-(3-chloro-2-fluorophenyl)-5-fluoro-2-(4-fluoro-1-methyl-1H-pyrazol-3-yl)-4-methyl-6-{[1-(3,3,3-trifluoropropanoyl)azetidin-3-yl]amino}-3,4-dihydro-2,7-naphthyridin-1(2H)-one]", "values": [
      {"measurement": "Emax", "result": 90, "unit": "%"},
      {"measurement": "EC50", "result": 55.1, "unit": "nM"}
    ]},
    {"smiles": "Cn1cc(F)c(N2C[C@](C)(c3cccc(Cl)c3F)c3c(cnc(NC4CN(C(=O)CC(C)(C)O)C4)c3F)C2=O)n1", "note": "[compound 64, (4R)-4-(3-chloro-2-fluorophenyl)-5-fluoro-2-(4-fluoro-1-methyl-1H-pyrazol-3-yl)-6-{[1-(3-hydroxy-3-methylbutanoyl)azetidin-3-yl]amino}-4-methyl-3,4-dihydro-2,7-naphthyridin-1(2H)-one]", "values": [
      {"measurement": "Emax", "result": 80.4, "unit": "%"},
      {"measurement": "EC50", "result": 159, "unit": "nM"}
    ]},
    {"smiles": "Cn1cc(F)c(N2C[C@](C)(c3cccc(Cl)c3F)c3c(cnc(NC4CN(CC(=O)N5CCCC5)C4)c3F)C2=O)n1", "note": "[compound 65, (4R)-4-(3-chloro-2-fluorophenyl)-5-fluoro-2-(4-fluoro-1-methyl-1H-pyrazol-3-yl)-4-methyl-6-({1-[2-oxo-2-(pyrrolidin-1-yl)ethyl]azetidin-3-yl}amino)-3,4-dihydro-2,7-naphthyridin-1(2H)-one]", "values": [
      {"measurement": "Emax", "result": 83.4, "unit": "%"},
      {"measurement": "EC50", "result": 55.1, "unit": "nM"}
    ]},
    {"smiles": "CCN(C)C(=O)CN1CC(Nc2ncc3c(c2F)[C@@](C)(c2cccc(Cl)c2F)CN(c2nn(C)cc2F)C3=O)C1", "note": "[compound 66, 2-(3-{[(5R)-5-(3-chloro-2-fluorophenyl)-4-fluoro-7-(4-fluoro-1-methyl-1H-pyrazol-3-yl)-5-methyl-8-oxo-5,6,7,8-tetrahydro-2,7-naphthyridin-3-yl]amino}azetidin-1-yl)-N-ethyl-N-methylacetamide]", "values": [
      {"measurement": "Emax", "result": 88.8, "unit": "%"},
      {"measurement": "EC50", "result": 29.8, "unit": "nM"}
    ]},
    {"smiles": "CNC(=O)CN1CC(Nc2ncc3c(c2F)[C@@](C)(c2cccc(Cl)c2F)CN(c2nn(C)cc2F)C3=O)C1", "note": "[compound 67, 2-(3-{[(5R)-5-(3-chloro-2-fluorophenyl)-4-fluoro-7-(4-fluoro-1-methyl-1H-pyrazol-3-yl)-5-methyl-8-oxo-5,6,7,8-tetrahydro-2,7-naphthyridin-3-yl]amino}azetidin-1-yl)-N-methylacetamide]", "values": [
      {"measurement": "Emax", "result": 40.1, "unit": "%"},
      {"measurement": "EC50", "result": 76.8, "unit": "nM"}
    ]},
    {"smiles": "Cn1cc(F)c(N2C[C@](C)(c3cccc(Cl)c3F)c3c(cnc(NC4CN(CC(N)=O)C4)c3F)C2=O)n1", "note": "[compound 68, 2-(3-{[(5R)-5-(3-chloro-2-fluorophenyl)-4-fluoro-7-(4-fluoro-1-methyl-1H-pyrazol-3-yl)-5-methyl-8-oxo-5,6,7,8-tetrahydro-2,7-naphthyridin-3-yl]amino}azetidin-1-yl)acetamide]", "values": [
      {"measurement": "Emax", "result": 29.6, "unit": "%"},
      {"measurement": "EC50", "result": 247, "unit": "nM"}
    ]},
    {"smiles": "CN(CC1CC1)C(=O)CN1CC(Nc2ncc3c(c2F)[C@@](C)(c2cccc(Cl)c2F)CN(c2nn(C)cc2F)C3=O)C1", "note": "[compound 73, 2-(3-{[(5R)-5-(3-chloro-2-fluorophenyl)-4-fluoro-7-(4-fluoro-1-methyl-1H-pyrazol-3-yl)-5-methyl-8-oxo-5,6,7,8-tetrahydro-2,7-naphthyridin-3-yl]amino}azetidin-1-yl)-N-(cyclopropylmethyl)-N-methylacetamide]", "values": [
      {"measurement": "Emax", "result": 46.1, "unit": "%"},
      {"measurement": "EC50", "result": 45.3, "unit": "nM"}
    ]},
    {"smiles": "Cn1cc(F)c(N2C[C@](C)(c3cccc(Cl)c3F)c3c(cnc(NC4CN(CC(=O)N(CC(F)(F)F)C5CC5)C4)c3F)C2=O)n1", "note": "[compound 74, 2-(3-{[(5R)-5-(3-chloro-2-fluorophenyl)-4-fluoro-7-(4-fluoro-1-methyl-1H-pyrazol-3-yl)-5-methyl-8-oxo-5,6,7,8-tetrahydro-2,7-naphthyridin-3-yl]amino}azetidin-1-yl)-N-cyclopropyl-N-(2,2,2-trifluoroethyl)acetamide]", "values": [
      {"measurement": "Emax", "result": 129, "unit": "%"},
      {"measurement": "EC50", "result": 39.9, "unit": "nM"}
    ]}
  ]
}
